System: rats
Assay: 4 hour acute inhalation toxicity in rats
Assay type: in vivo
Conditions: rats dosed at 10,000 or 619 ppm vol/vol in air for 4 hours, 14 day post-dose monitoring; LC-50 estimated, interpreted as highest exposure level tested
Method: The 4 hour acute inhalation toxicity of Example 3 and CE2 in rats was determined by dosing animals at 10,000 or 619 ppm vol/vol in air (per Table 4) for 4 hours followed by 14 day post-dose monitoring. Based on the animal test results and the vapor concentration of the test compound, the LC-50 values were estimated. The NOEL (No Effect Level) value of CE3 was obtained from du Pont de Nemours trade literature. The 4 hr inhalation LC-50 value for CE4 was obtained from Solvay MSDS.

FC(=C(C(F)(F)F)C(F)(F)C(F)(F)C(F)(F)F)C(F)(C(F)(F)F)C(F)(F)F [Example 3, 1,1,1,2,3,5,5,6,6,7,7,7-dodecafluoro-2,4-bis(trifluoromethyl)hept-3-ene]
LC-50 (4 hr Inhalation in Rats): >10,000 ppmv

Reference: US10662359B2, “Heat transfer fluids and methods of using same” (3M INNOVATIVE PROPERTIES COMPANY, priority 2017, dated 2020)
